# Experimental data reported in patent publication US11006626B2, “Compounds for protection of cells” (Sulfateq B.V., priority 2012, dated 2021).
# Legend:
# [1] = test system: Human Embryo Kidney (HEK) 293 cells; test: Hypothermia/rewarming injury of HEK cells, trypan blue viability count; assay type: cell-based; settings: for viability at 0.01 µM / viability at 0.1 µM / viability at 1 µM / viability at 10 µM / viability at 100 µM / viability at 1000 µM: Homo sapiens, HEK293, 24 h, read-out: % cells that survived; for viability at 0.01 µM / viability at 0.1 µM / viability at 1 µM / viability at 10 µM / viability at 100 µM / viability at 1000 µM / % cells that survived: 24 h at 4° C., 24 h rewarming; for % cells that survived, Mean: mean over the tested concentrations
# Protocol: Human Embryo Kidney (HEK) 293 cells were cultured in DMEM cell culture medium (Life Technologies, 41965-052) supplemented with fetal calf serum, penicillin and streptomycin. Cells were seeded at a density of 0.8-1.2E6 mL-1 in 25 cm2 polystyrene flasks, placed in a 37° C.
# The compounds were dissolved in dimethyl sulfoxide (DMSO) to several concentrations. Before commencing experiments, this stock solution was dissolved in pre-warmed DMEM and further diluted to obtain a concentration range from 10 nM-1 mM. Cell culture medium was then replaced by these dilutions and cells were incubated in the presence of the compound for 1 hour. After incubation, lids were closed tightly and flasks were placed in a 4° C. room and cooled for 24 hours. After this cooling period, cells were placed back in the 37° C. incubator with lids closed and were allowed to rewarm for another 24 hours.
# After this rewarming period, microscopic images were taken to assess cell morphology (Nikon D5100, Nikon Diaphot-TMD). Cell culture medium was collected and centrifuged (4 minutes, 2000 rpm). The supernatant was collected and pH was immediately measured to prevent equilibration of the pH by the carbonate buffer in the medium, while the pelleted cells were resuspended in 5 mL of PBS. Cells remaining in the flask were washed twice with phosphate buffered saline (PBS) while the washing product was discarded. Subsequently, the cells were trypsinized by addition of 0.5 mL of trypsine and pooled with the resuspended pellet. This cell suspension was then stained at a final concentration of 0.2% trypan blue (Sigma, T8154), followed by manual assessment of viability and cell number on a Bürker-Türk hemocytometer. To conclude the assay, cell culture medium glucose levels were measured (Roche Accutrend Plus) as an indication of metabolic activity. All of these steps were performed with care to prevent mechanical stress to influence or alter the viability of the cells after cooling.
# The amount represents the % cells that survived. […] In the control, the same procedure was applied to two badges of HEK cells.
# blood platelets = test: Cold storage of PRP blood platelets, aggregation of thrombocytes after storage; assay type: cell-based; set-up: key: − means that most of the thrombocytes were aggregated; a + indicates that a few cells were still viable but some cells aggregated; a ++ indicates that almost all cells were viable; settings: 30 mM; PRP platelets stored at 4° C.; 264 hours
# Protocol: PRP platelets were harvested and 2.1 ml was suspended in Poly Propylene tubes of 5 ml, closed with a stop.
# Several compounds according to the invention were added to the blood platelets directly after preparing the PRP plasma and incubated during 10 minutes at 37° C. or 30 minutes at room temperature. The blood platelets with the compound were then stored at 4° C.
# A control was stored under shaking conditions at room temperature. Another control was stored at 4° C. without the addition of a compound.
# A sample was taken out of each tube after 264 hours after addition of the compound and tested as follows: • The color and coagulation properties were visually analysed. • The thrombocyte cells that survived were counted and it was evaluated whether the thrombocytes were aggregated. • It was evaluated if the thrombocytes still were able to function after stimulation by the addition of ADP or under influence of collagen in a 96 well plate. • The adhesion was evaluated, meaning the ability of the platelets to bind collagen in a 6 well plate preincubated with collagen. • Via an ELISA assay, it was evaluated whether thromboxane was secreted from the platelets. Thromboxane facilitates aggregation and is produced by activated blood platelets.
# Table 3 provides an overview of the results of the addition of the compounds to the blood platelets and evaluates the aggregation of the thrombocytes after addition of the compound according to the invention and cooling until 4° C.
Structure (SMILES),viability at 0.01 µM ([1]; 10 nM),viability at 0.1 µM ([1]; 100 nM),viability at 1 µM ([1]; 1 μM),viability at 10 µM ([1]; 10 μM),viability at 100 µM ([1]; 100 μM),viability at 1000 µM ([1]; 1 mM),"% cells that survived, Mean [1]",Aggregation of blood platelets after storage (blood platelets),% cells that survived ([1]; 10 nM),% cells that survived ([1]; 100 nM),% cells that survived ([1]; 1 μM),% cells that survived ([1]; 10 μM),% cells that survived ([1]; 100 μM),% cells that survived ([1]; 1 mM)
"Cc1c(C)c2c(c(C)c1O)CCC(C)(C(=O)N1CCNCC1)O2 (stereo not shown) [SUL - 121, (6-hydroxy-2,5,7,8-tetramethylchroman-2-yl)(piperazin-1-yl)methanone]",87.3%,89%,94.8%,88.9%,92.7%,0%,75%,+,–,–,–,–,–,–
"CNCCNC(=O)C1(C)CCc2c(C)c(O)c(C)c(C)c2O1 (stereo not shown) [SUL - 100, 6-hydroxy-2,5,7,8-tetramethyl-N-(2-(methylamino)ethyl)chroman-2-carboxamide]",77.8%,76.9%,63.2%,68.8%,55.6%,0%,57%,+,–,–,–,–,–,–
"Cc1c(C)c2c(c(C)c1O)CCC(C)(C(=O)N1CCN(CCO)CC1)O2 (stereo not shown) [SUL - 132, (6-hydroxy-2,5,7,8-tetramethylchroman-2-yl)(4-(2-hydroxyethyl)piperazin-1-yl)methanone]",–,–,–,–,–,–,89%,+,93.96%,91.41%,88.30%,91.11%,89.73%,80.51%
"Cc1c(C)c2c(c(C)c1O)CCC(C)(C(=O)N1CCC[C@H]1C(=O)O)O2 (single isomer, unassigned) [SUL - 144]",–,18.3%,21.6%,–,91%,92.6%,42%,+,4.08%,–,–,25.93%,–,–
"CCCCNC(=O)C1(C)CCc2c(C)c(O)c(C)c(C)c2O1 (stereo not shown) [SUL - 91, N-butyl-6-hydroxy-2,5,7,8-tetramethylchroman-2-carboxamide]",–,2.28%,82.4%,89.5%,87.5%,0%,52%,–,–,–,–,–,–,–
"Cc1c(C)c2c(c(C)c1O)CCC(C)(C(=O)NCCCN1CCCCC1)O2 (stereo not shown) [SUL - 102, 6-hydroxy-2,5,7,8-tetramethyl-N-(3-(piperidin-1-yl)propyl)chroman-2-carboxamide]",73.2%,95.8%,93.7%,82%,73.4%,93.3%,85%,–,–,–,–,–,–,–
"Cc1c(C)c2c(c(C)c1O)CCC(C)(C(=O)Nc1cccc([N+](=O)[O-])c1)O2 (stereo not shown) [SUL - 104, 6-hydroxy-2,5,7,8-tetramethyl-N-(3-nitrophenyl)chroman-2-carboxamide]",99.3%,99.5%,97.5%,98.9%,40.9%,52.2%,81%,–,–,–,–,–,–,–
"Cc1c(C)c2c(c(C)c1O)CCC(C)(CN1CCC[C@H]1CO)O2 (stereo partly drawn) [SUL - 134, 2-(((S)-2-(hydroxymethyl)pyrrolidin-1-yl)methyl)-2,5,7,8-tetramethylchroman-6-ol]",–,–,–,–,–,–,79%,–,87.43%,86.34%,87.74%,86.58%,88.82%,36.51%
"Cc1c(C)c2c(c(C)c1O)CC[C@@](C)(C(=O)O)O2 [SUL - 84, (S)-6-hydroxy-2,5,7,8-tetramethylchroman-2-carboxylic acid]",–,6.22%,19.8%,70.1%,95.7%,94.5%,57%,–,–,–,–,–,–,–
"Cc1c(C)c2c(c(C)c1O)CCC(C)(C(=O)N[C@@H](C(N)=O)c1ccccc1)O2 (stereo partly drawn) [SUL - 111, N-((R)-2-amino-2-oxo-1-phenylethyl)-6-hydroxy-2,5,7,8-tetramethylchroman-2-carboxamide]",90.9%,81.6%,97.3%,93.7%,94.3%,79.2%,90%,–,–,–,–,–,–,–
"Cc1c(C)c2c(c(C)c1O)CCC(C)(C(=O)Nc1ccc(F)cc1)O2 (stereo not shown) [SUL - 106, N-(4-fluorophenyl)-6-hydroxy-2,5,7,8-tetramethylchroman-2-carboxamide]",77.8%,76.9%,63.2%,68.8%,55.6%,0%,57%,–,–,–,–,–,–,–
"Cc1c2c(c(C(C)C)c(O)c1C(C)C)CCC(C)(C(=O)N1CCNCC1)O2 (stereo not shown) [SUL - 137, (6-hydroxy-5,7-diisopropyl-2,8-dimethylchroman-2-yl)(piperazin-1-yl)methanone]",78.2%,86.1%,93.9%,90.9%,78.7%,0.53%,71%,–,–,–,–,–,–,–
"Cc1c(C)c2c(c(C)c1O)CCC(C)(CN1CCC[C@H]1CO)O2 (stereo partly drawn) [SUL - 135, 2-(((S)-2-(hydroxymethyl)pyrrolidin-1-yl)methyl)-2,5,7,8-tetramethylchroman-6-ol]",–,–,–,–,–,–,77%,–,71.94%,83.90%,93.82%,93.85%,83.46%,33.06%
"Cc1c(C)c2c(c(C)c1O)CCC(C)(C)O2 [SUL - 83, 2,2,5,7,8-pentamethylchroman-6-ol]",–,0%,79.4%,70.1%,55.7%,1.11%,41%,–,–,–,–,–,–,–
"Cc1c2c(c(C(C)C)c(O)c1C(C)C)CCC(C)(C(=O)NO)O2 (stereo not shown) [SUL - 131, N,6-dihydroxy-5,7-diisopropyl-2,8-dimethylchroman-2-carboxamide]",2.99%,1.59%,22.5%,91.1%,75.4%,0%,32%,–,–,–,–,–,–,–
"Cc1c(C)c2c(c(C)c1O)CCC(C)(C(=O)N1CCOCC1)O2 (stereo not shown) [SUL - 95, (6-hydroxy-2,5,7,8-tetramethylchroman-2-yl)(morpholino)methanone]",–,2.76%,86.8%,90.4%,92.1%,85.9%,72%,–,–,–,–,–,–,–
